# Data: patent EP0864571A1, “APOVINCAMINIC ACID DERIVATIVE AND MEDICINE CONTAINING THE SAME” (Hidaka, Hiroyoshi, priority 1995, dated 1997)
# Where two headings read alike, the source gives them in different places.
# Columns and labels:
# [1] = tested on: superior mesenteric artery; assay: Vascular smooth muscle relaxing activity (potassium chloride-contracted helical artery preparation); set-up: species or system rabbit; details: read-out: Vascular smooth muscle relaxing activity (ED50)
# Procedure: Each rabbit was sacrificed under exsanguination, and an incision was then made in the flank thereof. […] After this preparation cut was caused to contract with potassium chloride to maintain it under predetermined tension, a given test compound was added cumulatively.
# washed platelets = assay: Platelet aggregation inhibiting activity (washed platelets, collagen, nephelometric analysis); type: cell-based, normal volunteer; details: Homo sapiens, read-out: Platelet aggregation inhibiting activity (IC50)
# Procedure: Blood, which had been collected from a normal volunteer and had immediately been mixed with 1/10 volume of a 0.38% agueous solution of sodium citrate, was converted into a platelet-rich plasma (PRP) by centrifugation (700 x G, 10 minutes). To the PRP, 1/6 volume of the ACD solution (2.2% sodium citrate, 0.8% citric acid, 2.2% glucose - prepared before use) was added, followed by centrifugation (1,500 x G, 10 minutes). A platelet pellet so obtained was suspended in a modified HEPES Tyrode solution (135 mM sodium chloride, 2.7 mM potassium chloride, 1 mM magnesium chloride, 0.1 mg/mℓ glucose, 20 mM HEPE; pH 7.4). After 1/6 volume of the ACD solution was added to the suspension, further centrifugation was conducted (1,500 x G, 5 minutes). A platelet pellet so obtained was suspended in the modified HEPES Tyrode solution, whereby a washed platelet suspension containing about 300,000 platelets/µℓ therein was obtained.
# Into 270-µℓ aliquots of the washed platelet suspension obtained above, 3-µℓ aliquots of solutions of a given test compound at varied concentrations in an appropriate solvent were added, respectively. The resulting mixtures were each preheated at 37°C for 2 minutes and, subsequent to the addition of 30 µℓ of a 20 µg/mℓ solution of collagen, an absorbance was measured by a 4-channel aggregometer ("HEMA Tracer 601"; manufactured by Nicoh Bioscience Co., Ltd.).
# As a control, an absorption at the time of maximum aggregation by collagen in the presence of a solvent making use of a given test compound was assumed to be 100 whereas an absorbance before the addition of collagen was assumed to be 0. An inhibition rate (%) was then calculated from an absorbance at the time of maximum aggregation by collagen when the given test compound was added, and a concentration (µM) of the given test compound which achieves 50% inhibition was expressed as "IC50".
# [2] = Acute toxicity (single intravenous shot, approximate LD50); details: mouse, in vivo, male S1C:ICR mice, single shot into caudal vein
# Procedure: A test was conducted using male S1C:ICR mice, which were 6 to 7 weeks old and had body weights of from 18 to 36 g, in groups each which consisted of 3 mice.
# Predetermined amounts of compounds according to the present invention and a comparative drug (vinpocetine phosphate), each of which had been dissolved in a 5% aqueous solution of glucose, were administered as single shots into the caudal veins of the mice, and the mice were then observed to determine whether they remained under normal conditions or died. Upon expiration of an observation period, their approximate LD50 values were calculated by the provit method.
# [3] = tested on: platelet-rich plasma (PRP); assay: Platelet aggregation inhibition test (ex vivo PRP after oral administration); type: in vivo; details: guinea pigs, blood one hour after administration; for Platelet aggregation inhibition rate (%) Collagen: collagen (2.5 µg/mg); for Platelet aggregation inhibition rate (%) Arachidonic acid: arachidonic acid (0.1 mM)
# Procedure: A test was conducted using male S1c:Hartley guinea pigs, which were 5 to 7 weeks old and had body weights of from 274 to 554 g, in groups each of which consisted of five guinea pigs. […] One hour after the administration, blood was collected from the abdominal aorta, and a platelet-rich plasma (PRP) was prepared. […]
# [4] = tested on: Vertebral blood flow and femoral blood flow; assay: Blood flow enhancement test (anesthetized beagles, electromagnetic flow probe); type: in vivo; details: femoral vein administration
# Procedure: A test was conducted using male beagles, which were 9 to 13 months old, had body weights of from 9 to 10 kg and had been anesthetized with pentobarbital sodium (25-30 mg/kg), in groups each of which consisted of four beagles. Into one of the femoral veins of each of the beagles, a given test compound in a form dissolved in a 5% agueous solution of glucose was administered at a dose of from 0.1 to 1.0 mg/kg. Vertebral blood flow and femoral blood flow were measured using an electromagnetic flow probe connected to a magnetic flow meter.
# [5] = Oryctolagus cuniculus, rabbit superior mesenteric artery contracted with potassium chloride, concentration for 50% relaxation
# [6] = washed platelets of a normal volunteer, aggregation by collagen
"EC50 [1, 5]",Structure (SMILES),IC50 (washed platelets; [6]),also measured
1000 nM,"CCOC(=O)C1=CC2(CC)CCCN3CCc4c(n1c1cc(NS(=O)(=O)c5ccc(Br)cc5)ccc41)C32 (stereo not shown) [Compound 4, Ethyl 11-(4-bromophenyl)sulfonylamino-apovincaminate]",760 nM,–
1300 nM,"CCCOC(=O)C1=CC2(CC)CCCN3CCc4c(n1c1cc(NS(=O)(=O)c5ccc(Cl)cc5)ccc41)C32 (stereo not shown) [Compound 6, Propyl 11-(4-chlorophenyl)sulfonylamino-apovincaminate]",960 nM,–
2100 nM,"CCOC(=O)C1=CC2(CC)CCCN3CCc4c(n1c1cc(NS(=O)(=O)c5ccc(OC)cc5[N+](=O)[O-])ccc41)C32 (stereo not shown) [Compound 21, Ethyl 11-(4-methoxy-2-nitrophenyl)sulfonylamino-apovincaminate]",400 nM,–
–,"CCOC(=O)C1=C[C@]2(CC)CCCN3CCc4c(n1c1cc(NS(=O)(=O)c5c(C(C)C)cc(C(C)C)cc5C(C)C)ccc41)[C@@H]32 [Compound 20, Ethyl 11-(2,4,6-triisopropylphenyl)sulfonylamino-apovincaminate]",–,"EC50 ([1]; rabbit superior mesenteric artery contracted with potassium chloride, concentration for 50% relaxation): 930 nM"
–,"CCOC(=O)C1=CC2(CC)CCCN3CCc4c(n1c1cc(NS(=O)(=O)c5c(C)cc(C)cc5C)ccc41)C32 (stereo not shown) [Compound 12, Ethyl 11-mesytylenesulfonylamino-apovincaminate]",–,LD50 [2]: 50 mg/kg; Platelet aggregation inhibition rate (%) Collagen ([3]; oral 100 mg/kg): 13.0%
–,"CCOC(=O)C1=CC2(CC)CCCN3CCc4c(n1c1ccccc41)C32 (stereo not shown) [Vinpocetine phosphate, vinpocetine phosphate, reference compound]",–,LD50 [2]: 60 mg/kg
630 nM,"CCOC(=O)C1=CC2(CC)CCCN3CCc4c(n1c1cc(NS(=O)(=O)c5cccs5)ccc41)C32 (stereo not shown) [Compound 18, Ethyl 11-(2-thiophene)sulfonylamino-apovincaminate]",400 nM,–
860 nM,"CCOC(=O)C1=CC2(CC)CCCN3CCc4c(n1c1cc(NS(=O)(=O)c5ccc6ccccc6c5)ccc41)C32 (stereo not shown) [Compound 22, Ethyl 11-(2-naphthalene)sulfonylamino-apovincaminate]",280 nM,–
300 nM,"CCOC(=O)C1=CC2(CC)CCCN3CCc4c(n1c1cc(NS(=O)(=O)Cc5ccccc5)ccc41)C32 (stereo not shown) [Compound 13, Ethyl 11-benzylsulfonylamino-apovincaminate]",4400 nM,–
–,"O=C1CCc2cc(OCCCCc3nnnn3C3CCCCC3)ccc2N1 [Cilostazol, reference compound]",–,Platelet aggregation inhibition rate (%) Collagen ([3]; oral 100 mg/kg): 12.4%; Platelet aggregation inhibition rate (%) Arachidonic acid ([3]; oral 300 mg/kg): 22.1%; Platelet aggregation inhibition rate (%) Collagen ([3]; oral 300 mg/kg): 74.7%
200 nM,"CCOC(=O)C1=CC2(CC)CCCN3CCc4c(n1c1cc(NS(=O)(=O)c5ccccc5C(=O)OC)ccc41)C32 (stereo not shown) [Compound 19, Ethyl 11-(2-methoxycarbonylphenyl)sulfonylamino-apovincaminate]",1800 nM,–
1300 nM,"CCOC(=O)C1=CC2(CC)CCCN3CCc4c(n1c1cc(NS(=O)(=O)c5ccc(I)cc5)ccc41)C32 (stereo not shown) [Compound 8, Ethyl 11-(4-iodophenyl)sulfonylamino-apovincaminate]",810 nM,–
710 nM,"CCOC(=O)C1=CC2(CC)CCCN3CCc4c(n1c1cc(NS(=O)(=O)c5cc(C)ccc5C)ccc41)C32 (stereo not shown) [Compound 17, Ethyl 11-(2,5-dimethylphenyl)sulfonyl-amino-apovincaminate]",720 nM,–
–,"CCOC(=O)C1=CC2(CC)CCCN3CCc4c(n1c1cc(NS(=O)(=O)c5ccc(C)cc5)ccc41)C32 (stereo not shown) [Compound 11, Ethyl 11-(4-toluene)sulfonylamino-apovincaminate]",–,LD50 [2]: 125 mg/kg; EC50 ([1]; Oryctolagus cuniculus): 1000 nM; IC50 (washed platelets): 50 nM; Bloodflow increment (%) Femoral artery ([4]; dose 0.1 mg/kg): 2.9%; Bloodflow increment (%) Vertebral artery ([4]; dose 0.1 mg/kg): 5.4%; Bloodflow increment (%) Femoral artery ([4]; dose 0.3 mg/kg): 5.1%; Bloodflow increment (%) Vertebral artery ([4]; dose 0.3 mg/kg): 11.8%; Bloodflow increment (%) Femoral artery ([4]; dose 1.0 mg/kg): 4.5%; Bloodflow increment (%) Vertebral artery ([4]; dose 1.0 mg/kg): 32.5%; Platelet aggregation inhibition rate (%) Arachidonic acid ([3]; oral 100 mg/kg): 33.9%; Platelet aggregation inhibition rate (%) Collagen ([3]; oral 100 mg/kg): 49.1%
1200 nM,"CCOC(=O)C1=CC2(CC)CCCN3CCc4c(n1c1cc(NS(=O)(=O)c5c(F)c(F)c(F)c(F)c5F)ccc41)C32 (stereo not shown) [Compound 23, Ethyl 11-(2,3,4,5,6-pentafluorophenyl)sulfonylamino-apovincaminate]",580 nM,–
500 nM,"CCOC(=O)C1=CC2(CC)CCCN3CCc4c(n1c1cc(NS(=O)(=O)c5cccc6cccnc56)ccc41)C32 (stereo not shown) [Compound 15, Ethyl 11-(8-quinoline)sulfonylamino-apovincaminate]",4100 nM,–
–,"CCOC(=O)C1=CC2(CC)CCCN3CCc4c(n1c1cc(NS(=O)(=O)c5cccc([N+](=O)[O-])c5)ccc41)C32 (stereo not shown) [Compound 24, Ethyl 11-(3-nitrophenyl)sulfonylamno-apovincaminate]",–,EC50 ([1]; Oryctolagus cuniculus): 200 nM; IC50 (washed platelets): 900 nM
900 nM,"CCOC(=O)C1=CC2(CC)CCCN3CCc4c(n1c1cc(NS(=O)(=O)c5cc(Cl)ccc5Cl)ccc41)C32 (stereo not shown) [Compound 9, Ethyl 11-(2,5-dichlorophenyl)sulfonylamino-apovincaminate]",880 nM,–
1200 nM,"CCOC(=O)C1=CC2(CC)CCCN3CCc4c(n1c1cc(NS(=O)(=O)c5ccc(NC(C)=O)cc5)ccc41)C32 (stereo not shown) [Compound 14, Ethyl 11-(4-acetylaminophenyl)sulfonyl-amino-apovincaminate]",470 nM,–
2000 nM,"CCOC(=O)C1=CC2(CC)CCCN3CCc4c(n1c1cc(NS(=O)(=O)c5cccc6ccccc56)ccc41)C32 (stereo not shown) [Compound 10, Ethyl 11-(1-naphthalene)sulfonylamino-apovincaminate]",9200 nM,–
1300 nM,"CCC12C=C(C(=O)OC(C)C)n3c4c(c5ccc(NS(=O)(=O)c6ccc(Cl)cc6)cc53)CCN(CCC1)C42 (stereo not shown) [Compound 5, Isopropyl 11-(4-chlorophenyl)sulfonylamino-apovincaminate]",940 nM,–
2100 nM,"CCC12C=C(C(=O)OC)n3c4c(c5ccc(NS(=O)(=O)c6ccccc6)cc53)CCN(CCC1)C42 (stereo not shown) [Compound 2, Methyl 11-phenylsulfonylamino-apovincaminate]",380 nM,–
700 nM,"CCOC(=O)C1=CC2(CC)CCCN3CCc4c(n1c1cc(NS(=O)(=O)c5ccc(OC)cc5)ccc41)C32 (stereo not shown) [Compound 16, Ethyl 11-(4-methoxyphenyl) sulfonylamino-apovincaminate]",1000 nM,–
2000 nM,"CCOC(=O)C1=CC2(CC)CCCN3CCc4c(n1c1cc(NS(=O)(=O)c5ccc(F)cc5)ccc41)C32 (stereo not shown) [Compound 7, Ethyl 11-(4-fluorophenyl)sulfonylamino-apovincaminate]",910 nM,–
–,"CCOC(=O)C1=CC2(CC)CCCN3CCc4c(n1c1cc(NS(=O)(=O)c5ccccc5)ccc41)C32 (stereo not shown) [Compound 1, ethyl 11-phenylsulfonylamino-apovin-caminate]",–,LD50 [2]: 85 mg/kg; Platelet aggregation inhibition rate (%) Arachidonic acid ([3]; oral 100 mg/kg): 45.2%; Platelet aggregation inhibition rate (%) Collagen ([3]; oral 100 mg/kg): 85.4%

Structure (SMILES),"EC50 [1, 5]",IC50 (washed platelets; [6]),also measured
"CCC12C=C(C(=O)OC)n3c4c(c5ccc(NS(=O)(=O)c6ccc(Cl)cc6)cc53)CCN(CCC1)C42 (stereo not shown) [Compound 3, Methyl 11-(4-chlorophenyl)sulfonylamino-apovincaminate]",1700 nM,250 nM,–
